Where two headings read alike, the source gives them in different places.
Legend:
Cdk1/cycB = Cdk1/cycB (UniProt P06493); test: Cdk1/cycB kinase assay, histone H1 substrate; type: biochemical, starfish; conditions: Table 4; read-out: Cdk1, activity (IC50 for kinase inhibition)
Procedure: The inhibition of Cdk1 can be determined as follows: Cdk1/cycB: Cdk1/cycB are obtained from ProQinase, Freiburg, Germany. Starfish oocytes are induced to enter M phase of the cell cycle with 10 μM 1-methyladenine and frozen in liquid nitrogen and stored at −80° C. […] Briefly, the supernatant from oocytes is equilibrated for 30 min at 4° C. under constant rotation with the p9^CKShs-sepharose beads. The beads are extensively washed and active cdk1/cycB kinase is eluted with purified p9^CKShs (3 mg/ml). […] The assay is carried with slight modifications in 96-well plates at ambient temperature for 20 min. […] The reaction is terminated by addition of 25 μl 0.05 M EDTA pH 7.0. An aliquot of 40 μl is spotted with a multichannel dispenser on Immobilon P membranes mounted in a Millipore Microtiter filter manifold connected to a low vacuum source. After elimination of liquid, the membrane is transferred to a sequence of 4 washing baths containing 0.5% H3PO4 and one with EtOH (shaking incubation for 10 min each), dried, mounted onto a Hewlett Packard TopCount manifold added 10 μl Microscint® and counted. […] Cells were seeded at 2.5×10^7 cells per 150 mm dish and allowed to attach to a 150 mm dish for 1 hr at RT. Media (SF900II containing 10% FBS) is aspirated and recombinant baculovirus; GST-C-Raf-1, v-Ras and v-Src are added at MOI of 3.0, 2.5 and 2.5 receptively in a total volume of 4-5 mL. Cells are incubated for 1 hr at RT and then 15 mL of medium is added. Infected cells are incubated for 48-72 hr at 27° C. Infected Sf21 cells are scraped and collected into a 50 mL tube and centrifuged for 10 min at 4° C. at 1100 g in a Sorvall centrifuge. The cell pellet is washed once with ice cold PBS and lysed with 0.6 mL lysis buffer per 2.5×10^7 cells. Complete lysis of cells is achieved after 10 min on ice with occasional pipetting. […] GST-c-Raf-1 was allowed to bind to the beads at 4° C. for 1 hr with rocking. Bound GST-c-Raf-1 with beads was transferred to a column. The column is washed once with lysis buffer and twice with ice cold Tris buffered saline. Ice cold elution buffer is added and column flow is stopped to allow the free glutathione to disrupt the interaction of GST-c-Raf-1 with glutathione sepharose beads. Fractions (1 mL) are collected into pre-chilled tubes. Each tube contains 10% glycerol (final concentration) to maintain kinase activity during freeze thaw cycles. Purified fractions of GST-c-Raf-1 kinase protein are stored at −80° C.

human EphB4 receptor = target: T1, human EphB4 receptor (Homo sapiens, UniProt P54760); test: EphB4 kinase assay, GST-EphB, 33P incorporation into poly(Glu,Tyr); type: biochemical
T1 construct: made in house; host or cells: Sf9 or Sf21 (baculovirus)
T1 sequence (P54760 566-987): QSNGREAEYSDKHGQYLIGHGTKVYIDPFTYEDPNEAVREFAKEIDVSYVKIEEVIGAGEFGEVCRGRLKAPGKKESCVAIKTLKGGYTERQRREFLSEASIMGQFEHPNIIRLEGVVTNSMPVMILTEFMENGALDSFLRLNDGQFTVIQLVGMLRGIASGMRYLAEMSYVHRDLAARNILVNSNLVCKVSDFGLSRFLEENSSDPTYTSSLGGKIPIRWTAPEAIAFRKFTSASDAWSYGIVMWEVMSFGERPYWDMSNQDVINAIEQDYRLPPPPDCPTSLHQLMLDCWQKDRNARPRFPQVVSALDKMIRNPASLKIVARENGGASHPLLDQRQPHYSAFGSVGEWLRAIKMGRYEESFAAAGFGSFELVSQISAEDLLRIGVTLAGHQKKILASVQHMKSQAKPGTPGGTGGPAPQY
Excerpt: EphB4: Production and measure of enzymatic activity: Generation of Bac-to-Bac™ (Initrogen Life Technologies, Basel, Switzerland) GST-fusion expression vectors: Entire cytoplasmatic coding regions of the EphB-class are amplified by PCR from cDNA libraries derived from human placenta or brain, respectively. Recombinant baculovirus are generated that express the amino acid region 566-987 of the human EphB4 receptor (SwissProt Database, Accession No. P54760). GST sequence is cloned into pFastBac1® vector (Invitrogen Life Technologies, Basel, Switzerland) and PCR amplified. cDNAs encoding EphB4-receptor domains, respectively, are cloned in frame 3′prime to the GST sequence into this modified FastBac1 vector to generate pBac-to-Bac™ donor vectors. Single colonies arising from the transformation are inoculated to give overnight cultures for small scale plasmid preparation. […] By automated sequencing the inserts and approximately 50 bp of the flanking vector sequences are confirmed on both strands. Production of viruses: Viruses for each of the kinases are made according to the protocol supplied by GIBCO if not stated otherwise. In brief, transfer vectors containing the kinase domains are transfected into the DH10Bac cell line (GIBCO) and plated on selective agar plates. Colonies without insertion of the fusion sequence into the viral genome (carried by the bacteria) are blue. Single white colonies are picked and viral DNA (bacmid) isolated from the bacteria by standard plasmid purification procedures. Sf9 cells or Sf21 cells are then transfected in 25 cm2 flasks with the viral DNA using Cellfectin reagent according to the protocol. Purification of GST-tagged kinases: The centrifuged cell lysate is loaded onto a 2 mL glutathione-sepharose column (Pharmacia) and washed three times with 10 mL of 25 mM Tris-HCl, pH 7.5, 2 mM EDTA, 1 mM DTT, 200 mM NaCl. The GST-tagged proteins are then eluted by 10 applications (1 mL each) of 25 mM Tris-HCl, pH 7.5, 10 mM reduced-glutathione, 100 mM NaCl, 1 mM DTT, 10% Glycerol and stored at −70° C. Protein kinase assays: The activities of protein kinases are assayed in the presence or absence of inhibitors, by measuring the incorporation of 33P from [γ33P]ATP into a polymer of glutamic acid and tyrosine (poly(Glu,Tyr)) as a substrate. The kinase assays with purified GST-EphB (30 ng) are carried out for 15-30 min at ambient temperature in a final volume of 30 μL containing 20 mM Tris.HCl, pH 7.5, 10 mM MgCl2, 3-50 mM MnCl2, 0.01 mM Na3VO4, 1% DMSO, 1 mM DTT, 3 μg/mL poly(Glu,Tyr) 4:1 (Sigma; St. Louis, Mo., USA) and 2.0-3.0 μM ATP (γ-[33P]-ATP 0.1 μCi). The assay is terminated by the addition of 20 μL of 125 mM EDTA. Subsequently, 40 μl of the reaction mixture are transferred onto Immobilon-PVDF membrane (Millipore, Bedford, Mass., USA) previously soaked for 5 min with methanol, rinsed with water, then soaked for 5 min with 0.5% H3PO4 and mounted on vacuum manifold with disconnected vacuum source. After spotting all samples, vacuum is connected and each well rinsed with 200 μl 0.5% H3PO4. Membranes are removed and washed 4× on a shaker with 1.0% H3PO4, once with ethanol. Membranes are counted after drying at ambient temperature, mounting in Packard TopCount96-well frame, and addition of 10 μL/well of Microscint™ (Packard). IC50 values are calculated by linear regression analysis of the percentage inhibition of each compound in duplicate, at four concentrations (usually 0.01, 0.1, 1 and 10 μM). One unit of protein kinase activity is defined as 1 nmole of 33P ATP transferred from [γ33P] ATP to the substrate protein per minute per mg of protein at 37° C. Compounds of formula I show EphB4 inhibition down to 10 nM, preferably IC50 values between 0.01-1.0 μM.

| Compound | melting point [°C] | other results |
| --- | --- | --- |
| COc1cccc(-c2cnc3c(-c4ccc(N5CCN(C)CC5)cc4)cnn3c2N)c1 [Example 2, 6-(3-Methoxy-phenyl)-3-[4-(4-methyl-piperazin-1-yl)-phenyl]-pyrazolo[1,5-a]pyrimidin-7-ylamine] |  | IC50 (Cdk1/cycB): < 10 µM |
| CN(C)c1ccc(-c2cnn3c(N)c(-c4ccc(NS(=O)(=O)c5cccc(Cl)c5Cl)cc4)cnc23)cc1 [Example 10, N-{4-[7-Amino-3-(4-dimethylamino-phenyl)-pyrazolo[1,5-a]pyrimidin-6-yl]-phenyl}-2,3-dichloro-benzenesulfonamide] | 143 to 146 |  |
| CN(C)c1ccc(-c2cnn3c(N)c(-c4ccc(OS(=O)(=O)c5ccc(Cl)cc5)cc4)cnc23)cc1 [Example 11, 4-Chloro-benzenesulfonic acid 4-[7-amino-3-(4-dimethylamino-phenyl)-pyrazolo[1,5-a]pyrimidin-6-yl]-phenyl ester] | 186 to 188 |  |
| CN1CCN(c2cccc(-c3cnn4c(N)c(-c5ccccc5O)cnc34)c2)CC1 [Example 37, 2-{7-Amino-3-[3-(4-methyl-piperazin-1-yl)-phenyl]-pyrazolo[1,5-a]pyrimidin-6-yl}-phenol] |  | IC50 (Cdk1/cycB): < 10 µM |
| Cn1cc(-c2cnn3c(N)c(-c4cccc(O)c4)cnc23)c2ccccc21 [Example 45, 3-[7-Amino-3-(1-methyl-1H-indol-3-yl)-pyrazolo[1,5-a]pyrimidin-6-yl]-phenol] |  | IC50 (human EphB4 receptor; Table 4, read-out: EphB4, activity (IC50 for kinase inhibition)): < 10 µM |
| COc1ccc(N2CCN(C)CC2)cc1-c1cnn2c(N)c(-c3cccc(Cl)c3)c(C)nc12 [Example 74, 6-(3-Chloro-phenyl)-3-[2-methoxy-5-(4-methyl-piperazin-1-yl)-phenyl]-5-methyl-pyrazolo[1,5-a]pyrimidin-7-ylamine] | 116 to 121 | IC50 (human EphB4 receptor; Table 5, read-out: EphB4, IC50 class): < 1 µM |
| CCN(CC)C1CCN(c2cccc(-c3cnn4c(N)c(-c5cccc(Cl)c5)c(C)nc34)c2)CC1 [Example 104, 6-(3-Chloro-phenyl)-3-[3-(4-diethylamino-piperidin-1-yl)-phenyl]-5-methyl-pyrazolo[1,5-a]pyrimidin-7-ylamine] | 163 to 168 |  |
| CCN(CC)C1CCN(c2cccc(-c3cnn4c(N)c(-c5ccc(F)cc5)c(C)nc34)c2)CC1 [Example 105, 3-[3-(4-Diethylamino-piperidin-1-yl)-phenyl]-6-(4-fluoro-phenyl)-5-methyl-pyrazolo[1,5-a]pyrimidin-7-ylamine] | 208 to 210 |  |

— patent publication US20090099167A1, “Organic compounds” (Novartis Institutes for Biomedical Research, priority 2004, published 2009)
